This note sets out measurements from patent publication US8575114B2, “SGLT-2 inhibitors, methods of making them, and uses thereof” (Albany Molecular Research, Inc., priority 2010, dated 2013).

The target of one assay is hSGLT-2 (Homo sapiens (Human), UniProt P31639). Kind of assay: [14C]AMG uptake inhibition in CHO-K1/hSGLT-2 cells. The format is cell-based. The settings on record: 4 μM [14C]AMG, 3-hr incubation at 37° C., read-out: SGLT2, IC50. The protocol:
The inhibitory activity of the compounds of this invention against the SGLT-1 or SGLT-2 transporters can be determined by the following assay. […] CHO-K1 cells transfected with pcDNA3.1 (Invitrogen Corp., Carlsbad, Calif.) containing either the full-length hSGLT-1 or hSGLT-2 using Lipofectamine 2000 (Invitrogen Corp., Carlsbad, Calif.) were selected for stable incorporation of the construct by resistance to the selective pressure of Geneticin (450 μg/ml; Invitrogen Corp., Carlsbad, Calif.). Monoclonal cell lines isolated by minimal dilution were screened for uptake activity of radiolabled methyl α-D-glucopyranoside ([^14C]AMG), a non-metabolizable glucose analogue, and a single clone for each transporter was selected for maximal transporter activity to be used for evaluating the inhibitory activity of the compounds of this invention. In brief, 35,000 cells (CHO-K1/hSGLT-1 or CHO-K1/hSGLT-2) were plated per well of a black tissue culture treated 96-well plate in Ham's F12 media supplemented with 10% heat inactivated FBS and allowed to attached overnight at 37° C. and 5% CO2. Compounds were serially diluted 3-fold in DMSO generating a nine (9) data point dose response curve for each compound. Two replicates were performed per determination. […] Following a 3-hr incubation at 37° C. and 5% CO2, the uptake reaction was stopped by washing the cells three (3) times with ice-cold D-PBS and then lysing the cells with 50 μl of Microscint-20. […] Data were fit to an empirical four-parameter model to determine the inhibitor concentration at half-maximal response (IC50). The assay window was established by control wells incubated with [^14C]AMG in the presence or absence of sodium. A dose response curve for phlorizin was generated on every plate as a positive control.

The target of the next assay is hSGLT-1 (Homo sapiens (Human), UniProt P13866). Put plainly: [14C]AMG uptake inhibition in CHO-K1/hSGLT-1 cells. The format is cell-based. The settings on record: 4 μM [14C]AMG, 3-hr incubation at 37° C., read-out: SGLT-1, IC50. An excerpt: The inhibitory activity of the compounds of this invention against the SGLT-1 or SGLT-2 transporters can be determined by the following assay. The cDNAs for the human genes of SGLT-1 (SLC5A1—solute carrier family 5 sodium/glucose cotransporter member 1; Accession #NM_000343.1) or SGLT-2 (SLC5A2—member 2; Accession #NM_003041.2) were synthesized (OriGene Technologies, Inc.) and sub-cloned into the mammalian expression vector, pcDNA3.1 (Invitrogen Corp., Carlsbad, Calif.) using standard molecular biology techniques. CHO-K1 cells transfected with pcDNA3.1 (Invitrogen Corp., Carlsbad, Calif.) containing either the full-length hSGLT-1 or hSGLT-2 using Lipofectamine 2000 (Invitrogen Corp., Carlsbad, Calif.) were selected for stable incorporation of the construct by resistance to the selective pressure of Geneticin (450 μg/ml; Invitrogen Corp., Carlsbad, Calif.). Monoclonal cell lines isolated by minimal dilution were screened for uptake activity of radiolabled methyl α-D-glucopyranoside ([^14C]AMG), a non-metabolizable glucose analogue, and a single clone for each transporter was selected for maximal transporter activity to be used for evaluating the inhibitory activity of the compounds of this invention. In brief, 35,000 cells (CHO-K1/hSGLT-1 or CHO-K1/hSGLT-2) were plated per well of a black tissue culture treated 96-well plate in Ham's F12 media supplemented with 10% heat inactivated FBS and allowed to attached overnight at 37° C. and 5% CO2. Compounds were serially diluted 3-fold in DMSO generating a nine (9) data point dose response curve for each compound. Two replicates were performed per determination. The compounds were then diluted into Uptake Buffer (10 mM Hepes, 5 mM Tris, 137 mM NaCl, 5.4 mM KCl, 2.8 mM CaCl2, and 1.2 mM MgSO4, pH 7.4) with a final DMSO concentration of 0.9% (v/v). After the overnight incubation and prior to compound treatment, the cells were washed twice with Sodium Free Buffer in which the sodium chloride was replaced with 137 mM Choline Chloride, and then incubated with 4 μM [^14C]AMG in Uptake Buffer in the presence or absence of diluted compound. Following a 3-hr incubation at 37° C. and 5% CO2, the uptake reaction was stopped by washing the cells three (3) times with ice-cold D-PBS and then lysing the cells with 50 μl of Microscint-20. After 15-min, the amount of radioactivity that was incorporated into the cells was quantified using a Microbeta reader. Data were fit to an empirical four-parameter model to determine the inhibitor concentration at half-maximal response (IC50). The assay window was established by control wells incubated with [^14C]AMG in the presence or absence of sodium. A dose response curve for phlorizin was generated on every plate as a positive control.
hSGLT-1, sequence (P13866 whole entry): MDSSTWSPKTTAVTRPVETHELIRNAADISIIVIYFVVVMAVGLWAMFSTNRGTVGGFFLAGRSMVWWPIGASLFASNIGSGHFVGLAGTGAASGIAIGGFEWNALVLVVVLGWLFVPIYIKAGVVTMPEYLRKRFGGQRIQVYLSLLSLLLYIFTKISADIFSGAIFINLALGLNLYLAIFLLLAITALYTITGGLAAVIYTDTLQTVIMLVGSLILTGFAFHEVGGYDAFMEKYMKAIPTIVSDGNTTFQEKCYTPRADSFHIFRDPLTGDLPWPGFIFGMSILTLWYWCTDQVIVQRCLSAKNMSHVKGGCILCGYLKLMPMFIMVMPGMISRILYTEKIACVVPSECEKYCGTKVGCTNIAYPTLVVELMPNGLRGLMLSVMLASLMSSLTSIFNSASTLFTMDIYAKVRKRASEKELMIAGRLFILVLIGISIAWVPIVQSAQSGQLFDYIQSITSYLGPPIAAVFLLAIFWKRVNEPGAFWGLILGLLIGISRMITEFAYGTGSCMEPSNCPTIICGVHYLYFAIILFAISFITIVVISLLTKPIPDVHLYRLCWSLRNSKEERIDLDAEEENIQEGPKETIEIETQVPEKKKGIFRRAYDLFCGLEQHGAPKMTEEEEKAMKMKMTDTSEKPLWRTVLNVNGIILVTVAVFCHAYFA

hSGLT-2, sequence (P31639 whole entry): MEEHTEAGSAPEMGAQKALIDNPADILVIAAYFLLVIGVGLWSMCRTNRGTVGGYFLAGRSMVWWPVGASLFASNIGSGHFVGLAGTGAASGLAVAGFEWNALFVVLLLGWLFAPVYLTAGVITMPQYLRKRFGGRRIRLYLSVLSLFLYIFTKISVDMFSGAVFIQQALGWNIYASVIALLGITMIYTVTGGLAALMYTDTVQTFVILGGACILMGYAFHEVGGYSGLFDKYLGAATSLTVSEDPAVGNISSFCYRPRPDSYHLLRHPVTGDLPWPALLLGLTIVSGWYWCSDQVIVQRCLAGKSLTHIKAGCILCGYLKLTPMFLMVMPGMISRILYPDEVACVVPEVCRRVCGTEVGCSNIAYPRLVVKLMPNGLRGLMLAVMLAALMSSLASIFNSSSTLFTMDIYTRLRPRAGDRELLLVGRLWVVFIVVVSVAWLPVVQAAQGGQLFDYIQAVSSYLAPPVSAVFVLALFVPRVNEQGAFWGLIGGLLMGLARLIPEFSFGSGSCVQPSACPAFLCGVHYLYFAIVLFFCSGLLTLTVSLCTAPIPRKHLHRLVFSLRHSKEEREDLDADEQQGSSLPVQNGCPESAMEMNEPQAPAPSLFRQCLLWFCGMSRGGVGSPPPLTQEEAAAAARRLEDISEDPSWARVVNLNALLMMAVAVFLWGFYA

As to `O=c1n(Cc2cc([C@@H]3O[C@H](CO)[C@@H](O)[C@H](O)[C@H]3O)ccc2Cl)nc2ccccn12` [I-1, 2-(2-chloro-5-((2S,3R,4R,5S,6R)-3,4,5-trihydroxy-6-(hydroxymethyl)tetrahydro-2H-pyran-2-yl)benzyl)-[1,2,4]triazolo[4,3-a]pyridin-3(2H)-one], the IC50 at hSGLT-2 came out at 82.8 nM; at hSGLT-1, 24200 nM.

Take `Cc1ccc2nn(Cc3cc([C@@H]4O[C@H](CO)[C@@H](O)[C@H](O)[C@H]4O)ccc3Cl)c(=O)n2c1` [I-2, 2-(2-chloro-5-((2S,3R,4R,5S,6R)-3,4,5-trihydroxy-6-(hydroxymethyl)tetrahydro-2H-pyran-2-yl)benzyl)-6-methyl-[1,2,4]triazolo[4,3-a]pyridin-3(2H)-one]: the IC50 was 129 nM on hSGLT-2 and 67400 nM on hSGLT-1.

On to `O=c1n(Cc2cc([C@@H]3O[C@H](CO)[C@@H](O)[C@H](O)[C@H]3O)ccc2Cl)nc2cc(C(F)(F)F)ccn12` [I-3, 2-(2-chloro-5-((2S,3R,4R,5S,6R)-3,4,5-trihydroxy-6-(hydroxymethyl)tetrahydro-2H-pyran-2-yl)benzyl)-7-(trifluoromethyl)-[1,2,4]triazolo[4,3-a]pyridin-3(2H)-one], for which the IC50 on hSGLT-2 stood at 273 nM; on hSGLT-1, 49500 nM.

For the molecule `O=c1n(Cc2cc([C@@H]3O[C@H](CO)[C@@H](O)[C@H](O)[C@H]3O)ccc2Cl)nc2ccc(C(F)(F)F)cn12` [I-5, 2-(2-chloro-5-((2S,3R,4R,5S,6R)-3,4,5-trihydroxy-6-(hydroxymethyl)tetrahydro-2H-pyran-2-yl)benzyl)-6-(trifluoromethyl)-[1,2,4]triazolo[4,3-a]pyridin-3(2H)-one], the values for the IC50 at hSGLT-2 and on hSGLT-1 were 991 nM and > 90000 nM, respectively.

For `O=c1n(Cc2cc([C@@H]3O[C@H](CO)[C@@H](O)[C@H](O)[C@H]3O)ccc2Cl)nc2ccc(CO)cn12` [I-6, 2-(2-chloro-5-((2S,3R,4R,5S,6R)-3,4,5-trihydroxy-6-(hydroxymethyl)tetrahydro-2H-pyran-2-yl)benzyl)-6-(hydroxymethyl)-[1,2,4]triazolo[4,3-a]pyridin-3(2H)-one], the IC50 at hSGLT-2 was 145 nM; at hSGLT-1, > 90000 nM.

`OC[C@H]1O[C@@H](c2ccc(Cl)c(Cn3nc4ccccn4c3=S)c2)[C@H](O)[C@@H](O)[C@@H]1O` [I-7, 2-(2-chloro-5-((2S,3R,4R,5S,6R)-3,4,5-trihydroxy-6-(hydroxymethyl)tetrahydro-2H-pyran-2-yl)benzyl)-[1,2,4]triazolo[4,3-a]pyridine-3(2H)-thione]: the IC50 on hSGLT-2 was 316 nM; on hSGLT-1, > 73200 nM.

For `O=c1n(Cc2cc([C@@H]3O[C@H](CO)[C@@H](O)[C@H](O)[C@H]3O)ccc2Cl)nc2ccc(Cl)cn12` [I-8, 6-chloro-2-(2-chloro-5-((2S,3R,4R,5S,6R)-3,4,5-trihydroxy-6-(hydroxymethyl)tetrahydro-2H-pyran-2-yl)benzyl)-[1,2,4]triazolo[4,3-a]pyridin-3(2H)-one], the half-inhibitory concentration (IC50) at hSGLT-2 was 81.1 nM; at hSGLT-1 it was 61200 nM.

Consider `Cc1ccn2c(=O)n(Cc3cc([C@@H]4O[C@H](CO)[C@@H](O)[C@H](O)[C@H]4O)ccc3Cl)nc2c1` [I-9, 2-(2-chloro-5-((2S,3R,4R,5S,6R)-3,4,5-trihydroxy-6-(hydroxymethyl)tetrahydro-2H-pyran-2-yl)benzyl)-7-methyl-[1,2,4]triazolo[4,3-a]pyridin-3(2H)-one], for which the half-inhibitory concentration (IC50) at hSGLT-2 was 109 nM.

In the case of `O=c1n(Cc2cc([C@@H]3O[C@H](CO)[C@@H](O)[C@H](O)[C@H]3O)ccc2Cl)nc2ccc(Br)cn12` [I-10, 6-bromo-2-(2-chloro-5-((2S,3R,4R,5S,6R)-3,4,5-trihydroxy-6-(hydroxymethyl)tetrahydro-2H-pyran-2-yl)benzyl)-[1,2,4]triazolo[4,3-a]pyridin-3(2H)-one], the half-inhibitory concentration (IC50) on hSGLT-2 came to 94.8 nM; on hSGLT-1, 45600 nM.

Take `O=c1n(Cc2cc([C@@H]3O[C@H](CO)[C@@H](O)[C@H](O)[C@H]3O)ccc2Cl)nc2ccc(F)cn12` [I-11, 2-(2-chloro-5-((2S,3R,4R,5S,6R)-3,4,5-trihydroxy-6-(hydroxymethyl)tetrahydro-2H-pyran-2-yl)benzyl)-6-fluoro-[1,2,4]triazolo[4,3-a]pyridin-3(2H)-one]: the IC50 at hSGLT-2 stood at 222 nM.

In the case of `Cc1cc2nn(Cc3cc([C@@H]4O[C@H](CO)[C@@H](O)[C@H](O)[C@H]4O)ccc3Cl)c(=O)n2cc1Cl` [I-12, 6-chloro-2-(2-chloro-5-((2S,3R,4R,5S,6R)-3,4,5-trihydroxy-6-(hydroxymethyl)tetrahydro-2H-pyran-2-yl)benzyl)-7-methyl-[1,2,4]triazolo[4,3-a]pyridin-3(2H)-one], the results for the concentration for half-maximal inhibition (IC50) on hSGLT-2 and on hSGLT-1 were 36.6 nM and > 90000 nM, respectively.

`O=c1n(Cc2cc([C@@H]3O[C@H](CO)[C@@H](O)[C@H](O)[C@H]3O)ccc2Cl)nc2cc(CO)ccn12` [I-14, 2-(2-chloro-5-((2S,3R,4R,5S,6R)-3,4,5-trihydroxy-6-(hydroxymethyl)tetrahydro-2H-pyran-2-yl)benzyl)-7-(hydroxymethyl)-[1,2,4]triazolo[4,3-a]pyridin-3(2H)-one]: the concentration for half-maximal inhibition (IC50) was 170 nM at hSGLT-2 and > 90000 nM at hSGLT-1.

For `O=c1n(Cc2cc([C@@H]3O[C@H](CO)[C@@H](O)[C@H](O)[C@H]3O)ccc2Cl)nc2ccc(CCO)cn12` [I-15, 2-(2-chloro-5-((2S,3R,4R,5S,6R)-3,4,5-trihydroxy-6-(hydroxymethyl)tetrahydro-2H-pyran-2-yl)benzyl)-6-(2-hydroxyethyl)-[1,2,4]triazolo[4,3-a]pyridin-3(2H)-one], the IC50 at hSGLT-2 was 463 nM; at hSGLT-1 it was > 90000 nM.

For the molecule `OC[C@H]1O[C@@H](c2ccc(Cl)c(Cc3ccc4ncnn4c3)c2)[C@H](O)[C@@H](O)[C@@H]1O` [II-1, (2S,3R,4R,5S,6R)-2-(3-([1,2,4]triazolo[1,5-a]pyridin-6-ylmethyl)-4-chlorophenyl)-6-(hydroxymethyl)tetrahydro-2H-pyran-3,4,5-triol], the IC50 on hSGLT-2 was 226 nM; on hSGLT-1, > 90000 nM.

Turning to `O=c1c2ccoc2ccn1Cc1cc([C@@H]2O[C@H](CO)[C@@H](O)[C@H](O)[C@H]2O)ccc1Cl` [II-2, 5-(2-chloro-5-((2S,3R,4R,5S,6R)-3,4,5-trihydroxy-6-(hydroxymethyl)tetrahydro-2H-pyran-2-yl)benzyl)furo[3,2-c]pyridin-4(5H)-one], the IC50 was determined as 542 nM at hSGLT-2 and 71500 nM on hSGLT-1.

For the molecule `O=C1CN(c2ccc(Cc3cc([C@@H]4O[C@H](CO)[C@@H](O)[C@H](O)[C@H]4O)ccc3Cl)cc2)C(=O)N1C(c1ccccc1)(c1ccccc1)c1ccccc1` [III-1, 1-(4-(2-chloro-5-((2S,3R,4R,5S,6R)-3,4,5-trihydroxy-6-(hydroxymethyl)tetrahydro-2H-pyran-2-yl)benzyl)phenyl)-3-tritylimidazolidine-2,4-dione], the IC50 is 329 nM at hSGLT-2 and 6250 nM at hSGLT-1.
